Measured values as given in patent US9303020B2, “Compounds for the treatment of hepatitis C” (Bristol-Myers Squibb Company, priority 2012, dated 2016).

Assays:
[1] = target: T1, NS5B protein of HCV, genotype 1b (Hepatitis C virus genotype 1b, UniProt Q9WMX2); experiment: HCV NS5B RdRp enzyme assay; format: biochemical; details: 7 nM NS5B enzyme, 4 hours at 30° C.
T1 construct: The protein was expressed with an 18 amino acid C-terminal truncation to enhance the solubility; made in house; host or cells: E. coli BL21(DE3)
T1 sequence (Q9WMX2 2420-2992): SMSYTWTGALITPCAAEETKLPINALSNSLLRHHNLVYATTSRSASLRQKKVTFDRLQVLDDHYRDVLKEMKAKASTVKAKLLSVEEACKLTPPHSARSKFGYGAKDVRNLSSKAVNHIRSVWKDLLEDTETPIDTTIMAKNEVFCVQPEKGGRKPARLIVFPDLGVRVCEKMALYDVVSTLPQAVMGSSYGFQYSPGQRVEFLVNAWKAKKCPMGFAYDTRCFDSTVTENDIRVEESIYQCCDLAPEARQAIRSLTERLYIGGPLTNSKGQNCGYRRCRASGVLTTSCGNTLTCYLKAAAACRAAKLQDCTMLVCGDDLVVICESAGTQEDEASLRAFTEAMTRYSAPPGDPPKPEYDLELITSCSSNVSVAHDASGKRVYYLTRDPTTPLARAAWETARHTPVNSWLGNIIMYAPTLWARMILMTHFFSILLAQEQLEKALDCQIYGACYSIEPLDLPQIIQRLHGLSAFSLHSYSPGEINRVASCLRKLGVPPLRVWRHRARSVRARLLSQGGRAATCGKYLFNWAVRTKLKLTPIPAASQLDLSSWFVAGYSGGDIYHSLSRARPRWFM
Method: The cDNA encoding the NS5B protein of HCV, genotype 1b, was cloned into the pET21a expression vector. The protein was expressed with an 18 amino acid C-terminal truncation to enhance the solubility. The E. coli competent cell line BL21(DE3) was used for expression of the protein. Cultures were grown at 37° C. for ˜4 hours until the cultures reached an optical density of 2.0 at 600 nm. The cultures were cooled to 20° C. and induced with 1 mM IPTG. Fresh ampicillin was added to a final concentration of 50 μg/mL and the cells were grown overnight at 20° C.
Cell pellets (3 L) were lysed for purification to yield 15-24 mgs of purified NS5B. […]
Reactions were allowed to proceed for 4 hours at 30° C. and terminated by the addition of 50 mM EDTA (10 μL). After incubating for at least 15 minutes, plates were read on an Amersham LEADseeker multimodality imaging system.
IC50 values for compounds were determined using ten different [I]. IC50 values were calculated from the inhibition using the four-parameter logistic formula y=A+((B−A)/(1+((C/x)^D))), where A and B denote minimal and maximal % inhibition, respectively, C is the IC50, D is hill slope and x represents compound concentration.

[2] = test system: genotype 1b HCV replicon in Huh-7 cells; experiment: HCV replicon luciferase assay; format: cell-based, HCV genotype 1b (human hepatocyte derived cell line Huh-7); details: Hepatitis C virus, Huh-7, 72 h, Renilla luciferase, 3 days incubation
Method: The cell lines used to evaluate compounds consist of a human hepatocyte derived cell line (Huh-7) that constitutively expresses a genotype 1b HCV replicon containing a Renilla luciferase reporter gene. These cells were maintained in Dulbecco's modified Eagle medium (DMEM) containing 10% FBS, 100 U/mL penicillin/streptomycin and 1.0 mg/mL G418.
To evaluate compound efficacy, titrated compounds were transferred to sterile 384-well tissue culture treated plates, and the plates were seeded with HCV replicon cells (50 μL at a density of 2.4×10^3 cells/well) in DMEM containing 4% FBS (final DMSO concentration at 0.5%). After 3 days incubation at 37° C., cells were analyzed for Renilla Luciferase activity using the EnduRen substrate (Promega cat #E6485) according to the manufacturer's directions. Briefly, the EnduRen substrate was diluted in DMEM and then added to the plates to a final concentration of 7.5 μM. The plates were incubated for at least 1 h at 37° C. then read on a Viewlux Imager (PerkinElmer) using a luminescence program. The 50% effective concentration (EC50) was calculated using the four-parameter logistic formula noted above.

[3] = test system: HCV; details: extended dosing of the combination regimens with interferon and ribavirin; cited from earlier work

| Compound | IC50 [1] [nM] | EC50 [2] [nM] | toxicity during extended dosing [3] |
| --- | --- | --- | --- |
| COc1cc(C)c(-c2ccc3oc(-c4ccc(F)cc4)c(-c4ncc[nH]4)c3c2F)cc1C(=O)NC1(c2ncccn2)CC1 [Example 1, 5-(4-fluoro-2-(4-fluorophenyl)-3-(1H-imidazol-2-yl)benzofuran-5-yl)-2-methoxy-4-methyl-N-(1-(pyrimidin-2-yl)cyclopropyl)benzamide] | 30 | 30 |  |
| CCNc1cc2oc(-c3ccc(F)cc3)c(-c3ncc[nH]3)c2cc1-c1ccc(OC)c(C(=O)NC2(c3ncccn3)CC2)c1 [Example 2, 5-(6-(ethylamino)-2-(4-fluorophenyl)-3-(1H-imidazol-2-yl)benzofuran-5-yl)-2-methoxy-N-(1-(pyrimidin-2-yl)cyclopropyl)benzamide] |  | 7.2 |  |
| CCN(c1cc2oc(-c3ccc(F)cc3)c(-c3ncc[nH]3)c2cc1-c1ccc(OC)c(C(=O)NC2(c3ncccn3)CC2)c1)S(C)(=O)=O [Example 3, 5-(6-(N-ethylmethylsulfonamido)-2-(4-fluorophenyl)-3-(1H-imidazol-2-yl)benzofuran-5-yl)-2-methoxy-N-(1-(pyrimidin-2-yl)cyclopropyl)benzamide] |  | 9 |  |
| CNC(=O)c1c(-c2ccc(F)cc2)oc2cc(N(CCO)S(C)(=O)=O)c(C3CC3)cc12 [HCV-796] |  |  | hepatic toxicity |
